# According to the supplement of paper PMC11208160:
# Assay: recombinant UMI read abundance after kanamycin selection (control-corrected) (log10(CPM+1)); higher = more efficient recombination; extreme values may be limits of the assay; sequences stand for … in AGTGCAGAGAAAATCGGCCAGTTTTCTCTGCCTGCAGTCCGCATGCCGTGGGACCCCTTGGGTTCTAACCTGTTGCCTAGATTTATGCAGCGGACTGCCTTTCTCCCAAAGTGATAAACCGG…AGGTTGGTTTCACT; site = the 11-nt donor
# Method in brief: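 Under IPTG (0.07 mM) plus kanamycin, or without selection, Escherichia coli carrying a UMI-tagged donor and donor-binding-loop pair library and a target plasmid for the IS621 bridge recombinase were plated in two replicates. Recombinant UMIs were PCR-amplified across the donor–target junction and sequenced. Counts were converted to CPM, averaged over replicates, scaled by control-derived factors and reported as log10(CPM+1).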
# 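Note: IS621 bridge recombinase in Escherichia coli cells against a fixed T5 target plasmid.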
row,Sequence,recombinant UMI read abundance (log10)
1,GAATACTCATGGACCGGTTTTCCCGGTAATCCGTATTTGAT (site GAATACTCTAT),2.8
2,GAATATTCATGGACCGGTTTTCCCGGTAATCCGTATTTGTT (site GAAAATTCTAA),0
3,GAATATTCATGGACCGGTTTTCCCGGTAATCCGTATTTGTT (site GAACATTCTAA),0
4,GAATATTCATGGACCGGTTTTCCCGGTAATCCGTATTTGTT (site GAAGATTCTAA),0
5,GAATATTCATGGACCGGTTTTCCCGGTAATCCGTATTTGTT (site GAATATTCTAA),0.948
6,GAATCGCCATGGACCGGTTTTCCCGGTAATCCGTATTTGCA (site GAATAGCCTTG),0.613
7,GAATCGCCATGGACCGGTTTTCCCGGTAATCCGTATTTGCA (site GAATCGCCTTG),0.687
8,GAATCGCCATGGACCGGTTTTCCCGGTAATCCGTATTTGCA (site GAATGGCCTTG),0.345
9,GAATCGCCATGGACCGGTTTTCCCGGTAATCCGTATTTGCA (site GAATTGCCTTG),0
10,GAATGACCATGGACCGGTTTTCCCGGTAATCCGTATTTGCA (site GAATGACCTTG),1.13
11,GAATGACCATGGACCGGTTTTCCCGGTAATCCGTATTTGCA (site GAATGCCCTTG),0
12,GAATGACCATGGACCGGTTTTCCCGGTAATCCGTATTTGCA (site GAATGGCCTTG),1.02
13,GAATGACCATGGACCGGTTTTCCCGGTAATCCGTATTTGCA (site GAATGTCCTTG),0
14,GAATGCTCATGGACCGGTTTTCCCGGTAATCCGTATTTGAA (site AAATGCTCTTT),0.536
15,GAATGCTCATGGACCGGTTTTCCCGGTAATCCGTATTTGAA (site CAATGCTCTTT),1.08
16,GAATGCTCATGGACCGGTTTTCCCGGTAATCCGTATTTGAA (site GAATGCTCTTT),2.05
17,GAATGCTCATGGACCGGTTTTCCCGGTAATCCGTATTTGAA (site TAATGCTCTTT),0.684
18,GAATGGCCATGGACCGGTTTTCCCGGTAATCCGTATTTGCA (site AAATGGCCTTG),0
19,GAATGGCCATGGACCGGTTTTCCCGGTAATCCGTATTTGCA (site CAATGGCCTTG),0

row,Sequence,recombinant UMI read abundance (log10)
1,GAATGGCCATGGACCGGTTTTCCCGGTAATCCGTATTTGCA (site GAAAGGCCTTG),0
2,GAATGGCCATGGACCGGTTTTCCCGGTAATCCGTATTTGCA (site GAACGGCCTTG),0
3,GAATGGCCATGGACCGGTTTTCCCGGTAATCCGTATTTGCA (site GAAGGGCCTTG),0
4,GAATGGCCATGGACCGGTTTTCCCGGTAATCCGTATTTGCA (site GAATAGCCTTG),0.926
5,GAATGGCCATGGACCGGTTTTCCCGGTAATCCGTATTTGCA (site GAATCGCCTTG),0.248
6,GAATGGCCATGGACCGGTTTTCCCGGTAATCCGTATTTGCA (site GAATGACCTTG),0
7,GAATGGCCATGGACCGGTTTTCCCGGTAATCCGTATTTGCA (site GAATGCCCTTG),0.0091
8,GAATGGCCATGGACCGGTTTTCCCGGTAATCCGTATTTGCA (site GAATGGACTTG),0.018
9,GAATGGCCATGGACCGGTTTTCCCGGTAATCCGTATTTGCA (site GAATGGCCTAG),0
10,GAATGGCCATGGACCGGTTTTCCCGGTAATCCGTATTTGCA (site GAATGGCCTCG),0.0219
11,GAATGGCCATGGACCGGTTTTCCCGGTAATCCGTATTTGCA (site GAATGGCCTGG),0
12,GAATGGCCATGGACCGGTTTTCCCGGTAATCCGTATTTGCA (site GAATGGCCTTA),0.0192
13,GAATGGCCATGGACCGGTTTTCCCGGTAATCCGTATTTGCA (site GAATGGCCTTC),0.0145
14,GAATGGCCATGGACCGGTTTTCCCGGTAATCCGTATTTGCA (site GAATGGCCTTG),0
15,GAATGGCCATGGACCGGTTTTCCCGGTAATCCGTATTTGCA (site GAATGGCCTTT),0.0193
16,GAATGGCCATGGACCGGTTTTCCCGGTAATCCGTATTTGCA (site GAATGGGCTTG),0.00704
17,GAATGGCCATGGACCGGTTTTCCCGGTAATCCGTATTTGCA (site GAATGGTCTTG),0.0295
18,GAATGGCCATGGACCGGTTTTCCCGGTAATCCGTATTTGCA (site GAATGTCCTTG),0
19,GAATGGCCATGGACCGGTTTTCCCGGTAATCCGTATTTGCA (site GAATTGCCTTG),0

row,Sequence,recombinant UMI read abundance (log10)
1,GAATGGCCATGGACCGGTTTTCCCGGTAATCCGTATTTGCA (site GACTGGCCTTG),0.0119
2,GAATGGCCATGGACCGGTTTTCCCGGTAATCCGTATTTGCA (site GAGTGGCCTTG),0
3,GAATGGCCATGGACCGGTTTTCCCGGTAATCCGTATTTGCA (site GATTGGCCTTG),0
4,GAATGGCCATGGACCGGTTTTCCCGGTAATCCGTATTTGCA (site GCATGGCCTTG),0
5,GAATGGCCATGGACCGGTTTTCCCGGTAATCCGTATTTGCA (site GGATGGCCTTG),0
6,GAATGGCCATGGACCGGTTTTCCCGGTAATCCGTATTTGCA (site GTATGGCCTTG),0
7,GAATGGCCATGGACCGGTTTTCCCGGTAATCCGTATTTGCA (site TAATGGCCTTG),0.00558
8,GAATGGGCATGGACCGGTTTTCCCGGTAATCCGTATTTGCA (site GAATGGACTTG),1.98
9,GAATGGGCATGGACCGGTTTTCCCGGTAATCCGTATTTGCA (site GAATGGCCTTG),0.00596
10,GAATGGGCATGGACCGGTTTTCCCGGTAATCCGTATTTGCA (site GAATGGGCTTG),2.42
11,GAATGGGCATGGACCGGTTTTCCCGGTAATCCGTATTTGCA (site GAATGGTCTTG),2.23
12,GACAAAACATGGACCGGTTTTCCCGGTAATCCGTATTTGGT (site GACAAAACTAC),0.855
13,GACAAAACATGGACCGGTTTTCCCGGTAATCCGTATTTGGT (site GACAAACCTAC),0
14,GACAAAACATGGACCGGTTTTCCCGGTAATCCGTATTTGGT (site GACAAAGCTAC),0.517
15,GACAAAACATGGACCGGTTTTCCCGGTAATCCGTATTTGGT (site GACAAATCTAC),0
16,GACAAACCATGGACCGGTTTTCCCGGTAATCCGTATTTGAT (site GACAAACCTAA),0
17,GACAAACCATGGACCGGTTTTCCCGGTAATCCGTATTTGAT (site GACAAACCTAC),0
18,GACAAACCATGGACCGGTTTTCCCGGTAATCCGTATTTGAT (site GACAAACCTAG),0
19,GACAAACCATGGACCGGTTTTCCCGGTAATCCGTATTTGAT (site GACAAACCTAT),0
